From patent US20260017958A1, “METHOD FOR DETERMINING REGION OF CELL THAT HAS UNDERGONE PROGRAMMED CELL DEATH, DEVICE COMPRISING DETERMINATION UNIT, AND INFORMATION PROCESSING PROGRAM INCLUDING DETERMINATION STEP” (priority 2022, published 2026)

How the values were obtained:
HepG2 cell clusters = conditions: FIG. 47 and 48
Description: A549 cells, a human lung cancer-derived cell line, were seeded on an EZSPHERE 6-well plate (manufactured by AGC Techno Glass Co., Ltd.) at a density of 1.50×10^5 cells per well, and the cells were cultured in MEM medium containing 10% fetal bovine serum and MEM Non-Essential Amino Acids Solution (100x) (manufactured by Gibco, Inc.) at a final concentration of 1× under the conditions of 5% CO2, 37° C., and 100% humidity for 3 days, to form cell clusters. A DMSO solution of staurosporine (manufactured by FUJIFILM Wako Pure Chemical Corporation) was added thereto so as to obtain a final concentration of 0, 10, 20, 50, 100, 200, 300, 500, 700, 1000, 2000, or 5000 nM, and the cells were further cultured for 1 day. […]
Subsequently, the threshold value of the amount of spatial variation of the refractive index used in the threshold method was set to 2×10^−4. Subsequently, the refractive index distribution data was subjected to Gaussian noise removal processing using a Gaussian filter, fourth-order differentiation processing, and image convolution processing, and the amount of spatial variation of the refractive index for each voxel included in the refractive index distribution data was calculated. […]

Description for A549 cell clusters: A549 cells, a human lung cancer-derived cell line, were seeded on an EZSPHERE 6-well plate (manufactured by AGC Techno Glass Co., Ltd.) at a density of 1.50×10^5 cells per well, and the cells were cultured in MEM medium containing 10% fetal bovine serum and MEM Non-Essential Amino Acids Solution (100x) (manufactured by Gibco, Inc.) at a final concentration of 1× under the conditions of 5% CO2, 37° C., and 100% humidity for 3 days, to form cell clusters. A DMSO solution of staurosporine (manufactured by FUJIFILM Wako Pure Chemical Corporation) was added thereto so as to obtain a final concentration of 0, 10, 20, 50, 100, 200, 300, 500, 700, 1000, 2000, or 5000 nM, and the cells were further cultured for 1 day. Under the conditions in which the final concentration of STS was 0 nM, a solution of DMSO (manufactured by Sigma-Aldrich Corporation), which was used as a solvent for STS, at a final concentration of 0.5% was added.
For the obtained cell clusters, the refractive index distribution data was acquired using an observation apparatus 1A and the ODT shown in the refractive index distribution measurement method C. An objective lens at a magnification of 60 times was used.
Subsequently, the threshold value of the amount of spatial variation of the refractive index used in the threshold method was set to 2×10^−4. Subsequently, the refractive index distribution data was subjected to Gaussian noise removal processing using a Gaussian filter, fourth-order differentiation processing, and image convolution processing, and the amount of spatial variation of the refractive index for each voxel included in the refractive index distribution data was calculated. Lastly, the obtained amount of spatial variation of the refractive index was compared with the threshold value 2×10^−4, a region having an amount of spatial variation of the refractive index greater than the threshold value was determined to be a region of cells that had undergone programmed cell death (region of dead cells), and a region having an amount of spatial variation of the refractive index smaller than the threshold value was determined to be a non-divided region (region of live cells).

SMILES: CN[C@@H]1C[C@H]2O[C@@](C)([C@@H]1OC)n1c3ccccc3c3c4c(c5c6ccccc6n2c5c31)C(=O)NC4 [staurosporine]
- equivalent diameter of the cell cluster (A549 cell clusters; 0-5000 nM, FIG. 41): not dependent on the concentration of staurosporine
- volume of the cell cluster (A549 cell clusters; 0-5000 nM, FIG. 42): not dependent on the concentration of staurosporine
- proportion of regions determined to be non-divided regions (live cells) (A549 cell clusters; 0-5000 nM, FIG. 46): decreased in a staurosporine concentration-dependent manner
- nuclear fragmentation (morphological feature of apoptosis) in refractive index tomography data (A549 cell clusters; 1000 nM, FIG. 43): cells with nuclear fragmentation, which is a morphological feature of apoptosis, were observed on the surface and the inside of the cell cluster
- external shape of the cell cluster (HepG2 cell clusters): conspicuous changes in the external shape did not occur
